Reference: patent publication US20230114728A1 (Venatorx Pharmaceuticals, Inc., priority 2019, published 2023)
In brackets after ≈: the same amount, converted by molar mass.

Columns and labels:
[1] = test system: K. pneumoniae SI-117 producing VIM-1; assay: Broth microdilution MIC in CAMHB; type: cell-based; details: Klebsiella pneumoniae, read-out: Minimum Inhibitory Concentration, K. pneumoniae SI-117
Summary of the method: (§1)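 CLSI microdilution; CAMHB; inoculum 2-8×10^5 CFU/mL from 3-5 h 37° C culture; 2-fold compound series; 16-20 h, 37° C; MIC = lowest well without visible growth.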

E. coli 901C = assay: Broth microdilution MIC in CAMHB; type: cell-based; details: Escherichia coli; E. coli 901C (hyper-permeable); MHB; read-out: Minimum Inhibitory Concentration, E. coli 901C
Summary of the method: as §1

A. baumannii ATCC 19606 = assay: Broth microdilution MIC in CAMHB; type: cell-based; details: Acinetobacter baumannii, ATCC19606; MHB; read-out: Minimum Inhibitory Concentration, A. baumannii ATCC 19606
Summary of the method: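 CLSI broth microdilution in CAMHB: 2-fold compound dilutions inoculated at 2-8×10^5 CFU/mL from 3-5 h log-phase cultures. Incubated at 37 °C for 16-20 h (Enterobacteriaceae, Pseudomonas); MIC read visually as lowest concentration without growth. Strains include hyper-permeable and efflux-deficient mutants.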

E. coli AG100A = assay: Broth microdilution MIC in CAMHB; type: cell-based; details: Escherichia coli, read-out: Minimum Inhibitory Concentration, E. coli AG100A
Summary of the method: as §1

E. coli AG100 = assay: Broth microdilution MIC in CAMHB; type: cell-based; details: Escherichia coli; E. coli AG100 (wild-type parent); MHB; read-out: Minimum Inhibitory Concentration, E. coli AG100
Summary of the method: as §1

P. aeruginosa ATCC 35151 = assay: Broth microdilution MIC in CAMHB; type: cell-based; details: Pseudomonas aeruginosa, ATCC35151; MHB; hyper-permeable strain; read-out: Minimum Inhibitory Concentration, P. aeruginosa ATCC 35151
Summary of the method: as §1

E. coli ATCC 25922 = assay: Broth microdilution MIC in CAMHB; type: cell-based; details: Escherichia coli, ATCC25922; E. coli ATCC 25922; MHB; read-out: Minimum Inhibitory Concentration, E. coli 25922
Summary of the method: as §1

[2] = test system: K. pneumoniae UMM producing SHV-5 and KPC-2; assay: Broth microdilution MIC in CAMHB; type: cell-based; details: Klebsiella pneumoniae, read-out: Minimum Inhibitory Concentration, K. pneumoniae UMM
Summary of the method: as §1

E. coli D22 = assay: Broth microdilution MIC in CAMHB; type: cell-based; details: Escherichia coli; E. coli D22 (hyper-permeable); MHB; read-out: Minimum Inhibitory Concentration, E. coli D22
Summary of the method: as §1

[3] = test system: P. aeruginosa (ΔmexAB-oprM); assay: Broth microdilution MIC in CAMHB; type: cell-based; details: Pseudomonas aeruginosa, read-out: Minimum Inhibitory Concentration, P. aeruginosa ΔmexAB-OprM
Summary of the method: as §1

[4] = test system: K. pneumoniae 848844 producing SHV-11 and KPC-2; assay: Broth microdilution MIC in CAMHB; type: cell-based; details: Klebsiella pneumoniae, read-out: Minimum Inhibitory Concentration, K. pneumoniae 848844
Summary of the method: as §1

P. aeruginosa ATCC 27853 = assay: Broth microdilution MIC in CAMHB; type: cell-based; details: Pseudomonas aeruginosa, ATCC27853; MHB; read-out: Minimum Inhibitory Concentration, P. aeruginosa ATCC 27853
Summary of the method: as §1

P. aeruginosa PBP3 = target: T1, P. aeruginosa PBP3 (Pseudomonas aeruginosa, UniProt G3XD46); assay: Bocillin-FL fluorescence polarization competition binding assay, P. aeruginosa PBP3; details: fluorescence polarization competition binding assay using Bocillin-FL
T1 construct: made in house
Summary of the method: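 Inhibitor competition with Bocillin-FL for P. aeruginosa PBP3 was followed by fluorescence polarization on a Cytation3 (BioTek) reader, using g-factor 0.96, 490 nm excitation and 520 nm emission. The enzyme was at 0.75 μM and the probe at 0.1 μM in Hepes/NaCl/glycerol buffer, 80 μl per well. FP was recorded immediately after probe addition for up to 60 minutes. Potency was expressed as EC50, the concentration that reduces bound probe by 50%.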

E. coli K12 PBP3 = target: T2, E. coli K12 PBP3 (Escherichia coli, UniProt P0AD68); assay: biochemical; type: binding
T2 construct: made in house
Summary of the method: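 A. baumannii PBP2 (2.5 μM) and PBP3 (0.2 μM) were run in 25 mM Tris pH 8.0 buffer with Tween 20; E. coli PBP3 (1.5 μM) and N. gonorrhoeae PBP2 ([…]) in 50 mM Hepes pH 8.0 buffer.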

[5] = Bocillin-FL fluorescence polarization competition binding assay, A. baumannii PBP3; details: fluorescence polarization competition binding assay using Bocillin-FL; column 3; read-out: 4. baumannii PBP1a Potency
Excerpt: (§2) Example I: Experimental Method for Penicillin-Binding Protein Binding Assays with Bocillin-FL Via Fluorescence Polarization
(§3) To determine the ability of boronic acid-based test PBP inhibitors to bind Penicillin Binding Proteins (PBPs), Bocillin-FL (fluorescently-labeled penicillin V; ThermoFisher Scientific) was used in a fluorescence polarization (FP) competition binding assay to assess inhibitor binding to PBP2, PBP3 or PBP4 from Escherichia coli (K12), PBP3 from Pseudomonas aeruginosa (PA01), PBP1a, PBP2 and PBP3 from Acinetobacter baumannii (ATCC 19606), and PBP2 from Neiserria gonorrheae (FA19). PBPs were cloned and purified as described previously (E. coli PBPs, King, D. T, et al., ACS Infectious Diseases 2015, 1, 175-184; P. aeruginosa PBP3, Han et. al., PNAS 2010, 107 (51), 22002-22007; A. baumannii PBPs, Penwell et. al., Antimicrob. Agents Chemother. 2015, 59 (3), 1680-1689; N. gonorrhoeae PBP2, Singh et. al., J Biol. Chem. 2019, 294 (38), 14020-14032). To establish assay conditions for competition binding, enzyme titration/saturation binding experiments were initially performed. Bocillin-FL was prepared at 0.2 μM in a buffer comprised of 50 mM Hepes (pH 8.0), 300 mM NaCl and 5% (v/v) glycerol for reactions with E. coli, P. aeruginosa and N. gonorrhoeae PBPs, and 25 mM Tris (pH 8.0), 200 mM NaCl and 10% (v/v) glycerol and 0.005% (v/v) Tween 20 for reactions with A. baumannii PBPs. Saturation binding was performed by mixing 40 μl of PBP solutions ranging in concentrations from 0-24 μM with 40 μl of the 0.2 μM Bocillin-FL solution, in individual wells of a black 384-well microplate. FP was measured immediately upon mixing (Excitation, 490 nm; Emission, 520 nm; g-factor, 0.96), using a Cytation3 (BioTek) microplate reader and measured continuously for up to 120 minutes. […] The competition binding assay (80 μl final volume) was validated using beta-lactams and PBPs at final concentrations of: 1.5 μM, E. coli PBP3; 0.75 μM, P. aeruginosa PBP3; 1 μM A. baumannii PBP1a; 2.5 μM A. baumannii PBP2; 0.2 μM A. baumannii PBP3; and […] N. gonorrhoeae PBP2. Bocillin-FL was at 0.1 μM (0.05 μM with A. baumannii PBP1a) and beta-lactam concentrations ranged from 0-1000 μM. […] Bocillin-FL was added and the FP immediately measured for up to 60 minutes (90 minutes for E. coli PBP2). […] The beta-lactam potency was reported as the concentration of beta-lactam required to reduce the amount of PBP bound-Bocillin-FL by 50% (EC50). […] Binding assays for boronic acid PBP inhibitors were performed in an identical fashion for the respective PBPs

N. gonorrhoeae PBP2 = target: T3, N. gonorrhoeae PBP2 (Neisseria gonorrhoeae, UniProt P08149); assay: Bocillin-FL fluorescence polarization competition binding assay, N. gonorrhoeae PBP2; details: N. gonorrhoeae PBP2; assay validation with beta-lactams; read-out: EC50 (concentration of beta-lactam required to reduce the amount of PBP bound-Bocillin-FL by 50%)
T3 construct: made in house
Excerpt: as §2, §3

T2 sequence (P0AD68 1-577): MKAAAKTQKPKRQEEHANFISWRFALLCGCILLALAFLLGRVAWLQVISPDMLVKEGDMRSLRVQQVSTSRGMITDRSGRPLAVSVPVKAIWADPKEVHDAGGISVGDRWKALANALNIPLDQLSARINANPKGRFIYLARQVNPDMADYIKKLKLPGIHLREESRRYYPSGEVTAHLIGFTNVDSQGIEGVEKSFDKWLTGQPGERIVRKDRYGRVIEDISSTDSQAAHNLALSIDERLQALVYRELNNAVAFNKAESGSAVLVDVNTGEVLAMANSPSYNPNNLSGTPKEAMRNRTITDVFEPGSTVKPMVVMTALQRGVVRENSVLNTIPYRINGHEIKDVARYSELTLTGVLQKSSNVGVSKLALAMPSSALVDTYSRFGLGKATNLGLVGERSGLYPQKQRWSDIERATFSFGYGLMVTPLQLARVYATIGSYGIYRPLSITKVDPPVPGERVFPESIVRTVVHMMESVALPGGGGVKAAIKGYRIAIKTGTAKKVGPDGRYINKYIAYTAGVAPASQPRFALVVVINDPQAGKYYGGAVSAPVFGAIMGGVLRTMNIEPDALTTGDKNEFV
T3 sequence (P08149 whole entry): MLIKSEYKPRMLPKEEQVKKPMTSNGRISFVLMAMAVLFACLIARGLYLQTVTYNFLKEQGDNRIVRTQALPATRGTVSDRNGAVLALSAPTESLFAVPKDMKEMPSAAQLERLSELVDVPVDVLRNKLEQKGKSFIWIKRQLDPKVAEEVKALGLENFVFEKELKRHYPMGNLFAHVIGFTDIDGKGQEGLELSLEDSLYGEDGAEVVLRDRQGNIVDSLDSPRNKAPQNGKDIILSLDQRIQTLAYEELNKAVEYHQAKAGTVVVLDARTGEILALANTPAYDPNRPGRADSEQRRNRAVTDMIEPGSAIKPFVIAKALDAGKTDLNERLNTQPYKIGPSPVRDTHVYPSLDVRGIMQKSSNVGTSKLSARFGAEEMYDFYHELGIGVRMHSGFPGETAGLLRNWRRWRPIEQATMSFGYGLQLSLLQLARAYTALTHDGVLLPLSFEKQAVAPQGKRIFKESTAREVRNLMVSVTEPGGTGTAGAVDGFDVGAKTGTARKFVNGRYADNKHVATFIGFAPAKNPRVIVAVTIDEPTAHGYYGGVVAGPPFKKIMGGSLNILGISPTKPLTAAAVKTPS
T1 sequence (G3XD46 whole entry): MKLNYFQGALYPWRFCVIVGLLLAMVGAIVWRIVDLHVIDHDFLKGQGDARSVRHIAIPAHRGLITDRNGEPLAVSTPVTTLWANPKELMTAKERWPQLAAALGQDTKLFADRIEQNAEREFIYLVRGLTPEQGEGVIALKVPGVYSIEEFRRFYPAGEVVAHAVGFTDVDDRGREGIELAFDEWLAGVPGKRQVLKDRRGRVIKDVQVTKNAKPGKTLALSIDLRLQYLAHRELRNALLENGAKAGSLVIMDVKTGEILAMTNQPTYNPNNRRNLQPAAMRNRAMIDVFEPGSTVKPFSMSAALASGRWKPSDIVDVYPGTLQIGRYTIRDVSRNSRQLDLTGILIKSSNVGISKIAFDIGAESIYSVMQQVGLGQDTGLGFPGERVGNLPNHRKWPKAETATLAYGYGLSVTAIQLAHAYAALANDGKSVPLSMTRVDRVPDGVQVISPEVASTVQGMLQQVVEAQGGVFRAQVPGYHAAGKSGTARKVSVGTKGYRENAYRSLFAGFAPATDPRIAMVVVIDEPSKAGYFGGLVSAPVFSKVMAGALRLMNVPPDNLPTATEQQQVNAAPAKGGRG

SMILES	MIC [1]	MIC (E. coli 901C)	MIC (A. baumannii ATCC 19606)	MIC (E. coli AG100A)	MIC (E. coli AG100)	MIC (P. aeruginosa ATCC 35151)	MIC (E. coli ATCC 25922)	MIC [2]	MIC (E. coli D22)	MIC [3]	MIC [4]	MIC (P. aeruginosa ATCC 27853)	P. aeruginosa PBP3 Potency (P. aeruginosa PBP3)	EC50 (E. coli K12 PBP3)	EC50 [5]	EC50 (N. gonorrhoeae PBP2)
NCCCN1CCN(C(=O)N[C@@H](C(=O)N[C@H]2Cc3ccc(F)c(C(=O)O)c3OB2O)c2ncc(O)cc2F)C(=O)C1=O [Example 16, (R)-3-((R)-2-(4-(3-aminopropyl)-2,3-dioxopiperazine-1-carboxamido)-2-(3-fluoro-5-hydroxypyridin-2-yl)acetamido)-7-fluoro-2-hydroxy-3,4-dihydro-2H-benzo[e][1,2]oxaborinine-8-carboxylic acid]	32 to 64 µg/mL (≈ 54.2 to 108 µM)	2 to 4 µg/mL (≈ 3.39 to 6.78 µM)	> 128 µg/mL	8 to 16 µg/mL (≈ 13.6 to 27.1 µM)	8 to 16 µg/mL (≈ 13.6 to 27.1 µM)	< 0.25 µg/mL	8 to 16 µg/mL (≈ 13.6 to 27.1 µM)	32 to 64 µg/mL (≈ 54.2 to 108 µM)	2 to 4 µg/mL (≈ 3.39 to 6.78 µM)	8 to 16 µg/mL (≈ 13.6 to 27.1 µM)	32 to 64 µg/mL (≈ 54.2 to 108 µM)	32 to 64 µg/mL (≈ 54.2 to 108 µM)	D (D represents a potency <10 μM)	< 30 µM	30 to 100 µM	–
C=CC1=C(C(=O)O)N2C(=O)[C@@H](NC(=O)/C(=N\OCC(=O)O)c3csc(N)n3)[C@H]2SC1 [cefixime, reference compound]	–	–	–	–	–	–	–	–	–	–	–	–	–	–	–	0.26 µM
